# Measurements from ChEMBL document CHEMBL1201862, “PubChem BioAssay data set” (2004).
#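 Exposure lasted 48 hours, with cells grown in 96-well plates and compounds tested at five concentrations. Abbreviation: GI50, concentration required for 50% inhibition of growth.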 Activity calls are given as the source filed them. Cut-off read from the data, not from the text of the source: active = GI50 up to about 1.1 µM and inactive = higher.
# Experiments:
# Test in all cases: NCI tumour cell line growth inhibition, 48 h
# OVCAR-5 = test system: OVCAR-5
# COLO 205 = test system: COLO 205
# T47D = test system: T47D
# NCI-H460 = test system: NCI-H460
# DU-145 = test system: DU-145
# HOP-92 = test system: HOP-92
# SR = test system: SR
# KM12 = test system: KM12
# SF-539 = test system: SF-539
# SNB-19 = test system: SNB-19
# MOLT-4 = test system: MOLT-4
# RXF 393 = test system: RXF 393
# SF-295 = test system: SF-295
# SW-620 = test system: SW-620
# NCI-H23 = test system: NCI-H23
# K562 = test system: K562
# HCC 2998 = test system: HCC 2998
# U-251 = test system: U-251
# Hs-578T = test system: Hs-578T
# MDA-MB-435 = test system: MDA-MB-435
SMILES,GI50 (OVCAR-5),GI50 (COLO 205),GI50 (T47D),GI50 (NCI-H460),GI50 (DU-145),GI50 (HOP-92),GI50 (SR),GI50 (KM12),GI50 (SF-539),GI50 (SNB-19),GI50 (MOLT-4),GI50 (RXF 393),GI50 (SF-295),GI50 (SW-620),GI50 (NCI-H23),GI50 (K562),GI50 (HCC 2998),GI50 (U-251),GI50 (Hs-578T),GI50 (MDA-MB-435)
CCOC(=O)CSc1nnc(CSc2nc(-c3ccccc3)c(-c3ccccc3)[nH]2)n1-c1ccccc1,> 59.2 µM (inactive),> 58.2 µM (inactive),26.7 µM (inactive),> 100 µM (inactive),15.4 µM (inactive),40.4 µM (inactive),39.4 µM (inactive),> 75.9 µM (inactive),20.7 µM (inactive),> 100 µM (inactive),> 49.8 µM (inactive),22.5 µM (inactive),> 100 µM (inactive),> 100 µM (inactive),> 100 µM (inactive),> 100 µM (inactive),19.5 µM (inactive),> 100 µM (inactive),,
CN(/N=C/c1ccccn1)C1=NCCCCN1,> 100 µM (inactive),> 100 µM (inactive),> 100 µM (inactive),> 100 µM (inactive),,> 100 µM (inactive),> 100 µM (inactive),> 100 µM (inactive),> 100 µM (inactive),> 100 µM (inactive),> 100 µM (inactive),> 100 µM (inactive),> 100 µM (inactive),> 100 µM (inactive),> 100 µM (inactive),> 100 µM (inactive),> 100 µM (inactive),> 100 µM (inactive),> 100 µM (inactive),> 100 µM (inactive)
CCC(CCCN)Nc1cc(OC)cc2cccnc12 (centres undefined),> 100 µM (inactive),33.6 µM (inactive),,> 100 µM (inactive),> 100 µM (inactive),> 100 µM (inactive),79.6 µM (inactive),> 100 µM (inactive),> 100 µM (inactive),> 100 µM (inactive),> 10 µM (inactive),41.3 µM (inactive),> 100 µM (inactive),> 100 µM (inactive),,57 µM (inactive),22.7 µM (inactive),,> 100 µM (inactive),> 100 µM (inactive)
CN(C)c1ccc(/C=N/Nc2nc3ccccc3c(=O)n2-c2ccccc2)cc1,> 100 µM (inactive),> 100 µM (inactive),> 100 µM (inactive),> 100 µM (inactive),> 100 µM (inactive),31 µM (inactive),> 100 µM (inactive),> 100 µM (inactive),30.4 µM (inactive),34.9 µM (inactive),> 100 µM (inactive),50.8 µM (inactive),93.1 µM (inactive),> 100 µM (inactive),> 100 µM (inactive),> 100 µM (inactive),> 100 µM (inactive),34 µM (inactive),,> 100 µM (inactive)
COc1ccc(C2CC(c3ccc(NS(=O)(=O)c4cc([N+](=O)[O-])ccc4C)cc3)=NN2S(=O)(=O)c2cc([N+](=O)[O-])ccc2C)cc1 (centres undefined),> 100 µM (inactive),51.4 µM (inactive),71.4 µM (inactive),32.4 µM (inactive),> 100 µM (inactive),34.3 µM (inactive),51.4 µM (inactive),46 µM (inactive),,61.2 µM (inactive),33.3 µM (inactive),> 100 µM (inactive),33 µM (inactive),72.9 µM (inactive),22.4 µM (inactive),36.1 µM (inactive),10.5 µM (inactive),36.8 µM (inactive),,46 µM (inactive)
O=[N+]([O-])c1cc2ccc1OCc1cccc(n1)COc1ccc(cc1[N+](=O)[O-])/C=N\CCCCCCCC/N=C\2,> 100 µM (inactive),> 100 µM (inactive),,> 100 µM (inactive),> 100 µM (inactive),> 100 µM (inactive),> 100 µM (inactive),> 100 µM (inactive),> 100 µM (inactive),> 100 µM (inactive),> 100 µM (inactive),,> 100 µM (inactive),> 100 µM (inactive),> 100 µM (inactive),> 100 µM (inactive),> 100 µM (inactive),> 100 µM (inactive),> 100 µM (inactive),> 100 µM (inactive)
CC1(O)C(C)(O)C2(C)O[Te]3(OC12C)OC1(C)C(C)(O)C(C)(O)C1(C)O3 (centres undefined),15.3 µM (inactive),> 100 µM (inactive),,3.32 µM (inactive),,31 µM (inactive),17.2 µM (inactive),23.7 µM (inactive),29.1 µM (inactive),28.1 µM (inactive),11.8 µM (inactive),12.4 µM (inactive),15.3 µM (inactive),> 10 µM (inactive),14.8 µM (inactive),9.79 µM (inactive),42.7 µM (inactive),10.8 µM (inactive),,
COc1cc(NS(C)(=O)=O)ccc1Nc1cc(C)nc2ccc3[nH]ccc3c12,> 100 µM (inactive),> 100 µM (inactive),> 100 µM (inactive),> 100 µM (inactive),> 100 µM (inactive),> 100 µM (inactive),,> 100 µM (inactive),,> 100 µM (inactive),,,> 100 µM (inactive),> 100 µM (inactive),> 100 µM (inactive),> 100 µM (inactive),,> 100 µM (inactive),> 100 µM (inactive),> 100 µM (inactive)
CCCCCCCCCCCCCC[C@@H](O)[C@H]1CC[C@H]([C@H]2CC[C@H]([C@H](O)CCCCCC[C@@H](O)CC3=C[C@H](C)OC3=O)O2)O1,> 25 µM (inactive),> 25 µM (inactive),,0.0552 µM (active),4.24 µM (inactive),3.34 µM (inactive),1.03 µM (active),> 25 µM (inactive),> 13.8 µM (inactive),> 25 µM (inactive),,> 25 µM (inactive),> 25 µM (inactive),> 25 µM (inactive),1.2 µM (inactive),,> 25 µM (inactive),> 25 µM (inactive),1.63 µM (inactive),> 25 µM (inactive)
COCNC(=NC#N)NCOC,> 100 µM (inactive),> 53.5 µM (inactive),,> 100 µM (inactive),,> 100 µM (inactive),20.2 µM (inactive),> 52 µM (inactive),> 100 µM (inactive),> 100 µM (inactive),> 100 µM (inactive),> 42 µM (inactive),> 100 µM (inactive),> 42.9 µM (inactive),> 100 µM (inactive),> 64.6 µM (inactive),> 100 µM (inactive),> 58.5 µM (inactive),,
CC1(C)[C@H]2Cc3cc4nc5ccccn5c4cc3[C@@H]1C2,13.9 µM (inactive),18.4 µM (inactive),20.7 µM (inactive),18.4 µM (inactive),20.8 µM (inactive),14.5 µM (inactive),,18.6 µM (inactive),16.4 µM (inactive),16 µM (inactive),27.1 µM (inactive),,15.2 µM (inactive),20.8 µM (inactive),17 µM (inactive),19.8 µM (inactive),18.3 µM (inactive),15.7 µM (inactive),15.6 µM (inactive),15.3 µM (inactive)
Cc1ccc(C(=O)N/N=C(\N=N\c2ccccc2[N+](=O)[O-])c2ccc(N(C)C)cc2)cc1,> 100 µM (inactive),> 100 µM (inactive),,66.8 µM (inactive),,> 100 µM (inactive),33.7 µM (inactive),> 100 µM (inactive),> 100 µM (inactive),> 100 µM (inactive),> 100 µM (inactive),,> 100 µM (inactive),> 100 µM (inactive),> 100 µM (inactive),> 100 µM (inactive),60.5 µM (inactive),> 100 µM (inactive),> 100 µM (inactive),22.8 µM (inactive)
O=c1c(-c2cccc3ccccc23)c(-c2cccc3ccccc23)c1=O,24.7 µM (inactive),0.363 µM (active),,0.586 µM (active),,0.948 µM (active),1.43 µM (inactive),0.608 µM (active),1.38 µM (inactive),1.48 µM (inactive),1.59 µM (inactive),4.69 µM (inactive),0.446 µM (active),0.33 µM (active),2.49 µM (inactive),0.161 µM (active),0.979 µM (active),3.31 µM (inactive),,
CC[C@H]1C=CCC[C@@]2(C[C@@H]3CC[C@H]4[C@@H](C(=O)OCCCCCCCCCCCCCCCC(=O)N(CCCNC(C)=O)C[C@H](CCNC(C)=O)OC(C)=O)[C@@]5(CCC[C@@H](C)O5)NC(=[N+]34)N2)O1,1.51 µM (inactive),1.28 µM (inactive),,1.6 µM (inactive),1.57 µM (inactive),1.11 µM (active),1.56 µM (inactive),1.38 µM (inactive),1.48 µM (inactive),1.62 µM (inactive),1.23 µM (inactive),1.79 µM (inactive),1.86 µM (inactive),1.53 µM (inactive),1.58 µM (inactive),0.708 µM (active),1.26 µM (inactive),0.914 µM (active),1.93 µM (inactive),1.64 µM (inactive)
CCOP(=O)(/C=C/n1cc(C)c(=O)[nH]c1=O)OCC,> 100 µM (inactive),> 100 µM (inactive),> 100 µM (inactive),> 100 µM (inactive),> 100 µM (inactive),,,> 100 µM (inactive),> 100 µM (inactive),> 100 µM (inactive),> 100 µM (inactive),> 100 µM (inactive),> 100 µM (inactive),> 100 µM (inactive),> 100 µM (inactive),> 100 µM (inactive),,> 100 µM (inactive),,> 100 µM (inactive)
